In paper PMC11259696, “Small molecule MarR modulators potentiate metronidazole antibiotic activity in aerobic E. coli by inducing activation by the nitroreductase NfsA” (The Journal of Biological Chemistry, 2024):
In brackets after ≈: the same amount, converted by molar mass.

Legend:
MarR = target: T1, MarR (Escherichia coli, UniProt P27245); test: thermal shift assay with Kd (ΔTm […] °C); EMSA release of marO DNA (EC50 […]); assay type: binding
T1 construct: recombinant His-tagged MarR (pET15b, gene from BW25113)

E. coli ΔtolC = test system: T2, E. coli ΔtolC; test: microbe, parasite or virus in culture; parameters: resazurin microtiter MIC90 in CAMHB, aerobic, 2-fold dilutions, fluorescence; turnover below 10% of control; settings: Escherichia coli, 5 h; MIC90, antibiotic alone, aerobic; read-out: MIC90 against E. coli ∆tolC under aerobic conditions (µg/mL) / Alone
T2 construct: BW25113 ΔtolC efflux-deficient tolC deletion strain
Experimental: The MIC was determined using the colorimetric resazurin microtiter assay. Experiments were performed in 96-well plate format with a 100 μl final volume. Briefly, a suspension of an E. coli strain of interest was prepared in CAMHB (BD) at an A600 of 0.001. When required, boosters or arabinose were added to the suspension, and MTZ or NFZ antibiotics were tested in a concentration gradient through serial 2-fold dilutions. After 5 h of incubation at 37 °C, 10 μl of resazurin 12.5% was added to each well, and an additional incubation was carried out for 1.5 h. Fluorescence was measured using a Fluostar Optima BMG Labtech (Ex: 530 nm; Em: 590 nm). Values were converted to resazurin turnover based on minimal (no bacteria added to the medium) and maximal (no antibiotic added) fluorescence values. MIC90 values were determined when resaruzin turnover was ˂10% of control.

NfsA [1] = target: T3, NfsA (Escherichia coli, UniProt P17117); test: EPR detection of MTZ radical anion formed by purified NfsA (1-electron reduction); NADPH consumption by UHPLC-MS; assay type: biochemical
T3 construct: recombinant His-tagged NfsA (pET28, gene from BW25113)
T3 sequence (P17117 1-240): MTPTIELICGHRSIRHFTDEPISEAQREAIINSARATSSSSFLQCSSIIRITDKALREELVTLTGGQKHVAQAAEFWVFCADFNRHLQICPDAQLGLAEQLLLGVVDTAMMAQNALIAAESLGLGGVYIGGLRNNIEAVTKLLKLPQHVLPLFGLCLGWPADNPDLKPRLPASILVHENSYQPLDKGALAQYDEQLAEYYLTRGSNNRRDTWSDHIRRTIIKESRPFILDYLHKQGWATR

NfsA [2] = target: T3, NfsA; test: UHPLC-MS of NADPH consumption and NADP+ production by purified NfsA; assay type: biochemical
NfsA [3] = target: T3, NfsA; test: UHPLC-MS turnover by purified NfsA with NADPH consumption and GSH trapping; assay type: biochemical
NfsA [4] = target: T3, NfsA; test: reduction by purified recombinant NfsA (2-electron reduction); assay type: biochemical
[5] = test system: MarR (His-tagged) (Escherichia coli BW25113); test: EMSA; settings: EMSA: His-MarR 5 uM preincubated with BDM76441 15 min 25 C, then 100 nM marO 15 min 25 C (10 ul); 6% DNA retardation gel, 0.5x TBE, 150 V 45 min; binding …

T1 sequence (P27245 whole entry): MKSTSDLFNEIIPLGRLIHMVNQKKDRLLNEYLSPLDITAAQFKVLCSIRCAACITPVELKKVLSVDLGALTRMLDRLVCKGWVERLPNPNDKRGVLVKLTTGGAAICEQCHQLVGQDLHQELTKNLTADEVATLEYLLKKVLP

With `O=C(Nc1ccc(I)cc1C(=O)O)c1cccs1` [BDM76441] the Kd (MarR) was 9.8 ± 1.6 µM.

`O=C(Cn1ccnc1[N+](=O)[O-])NCc1ccccc1` [Benznidazole] showed an MIC90 (E. coli ΔtolC) of 62.5 µg/mL (≈ 240 µM).

In the case of `Cc1ncc([N+](=O)[O-])n1C` [Dimetridazole], the MIC90 (E. coli ΔtolC) is reported as > 500 µg/mL.

`Cc1ncc([N+](=O)[O-])n1CCO` [MTZ, metronidazole] was tested, and the “EPR detection of MTZ radical anion formed by purified NfsA (1-electron reduction)” value (NfsA [1]) was “these results confirmed the formation of MTZ radical anions by NfsA under aerobic conditions” and the MIC90 (E. coli ΔtolC) was > 500 µg/mL.

`NC(=O)C1=CN([C@@H]2O[C@H](COP(=O)(O)OP(=O)(O)OC[C@H]3O[C@@H](n4cnc5c(N)ncnc54)[C@H](OP(=O)(O)O)[C@@H]3O)[C@@H](O)[C@H]2O)C=CC1` [NADPH] was tested, and the “UHPLC-MS of NADPH consumption and NADP+ production by purified NfsA” value (NfsA [2]) was “rapid biotransformation of NFZ accompanied by a conversion of NADPH to NADP+ as measured by UHPLC-MS analysis”.

With `NC(=O)N/N=C/c1ccc([N+](=O)[O-])o1` [NFZ, nitrofurazone] the “UHPLC-MS turnover by purified NfsA with NADPH consumption and GSH trapping” value (NfsA [3]) was “with purified recombinant NfsA, we observed a rapid biotransformation of NFZ accompanied by a conversion of NADPH to NADP+” and the MIC90 (E. coli ΔtolC) was 15.6 µg/mL (≈ 78.7 µM).

In the case of `O=[N+]([O-])c1cncn1CCN1CCOCC1` [Nimorazole], the MIC90 (E. coli ΔtolC) is reported as > 500 µg/mL.

With `Cc1ncc([N+](=O)[O-])n1CC(O)CCl` (centres unmarked) [Ornidazole] the MIC90 (E. coli ΔtolC) was > 500 µg/mL.

In the case of `Cc1ncc([N+](=O)[O-])n1CC(C)O` (centres unmarked) [Secnidazole], the MIC90 (E. coli ΔtolC) is reported as > 500 µg/mL.

In the case of `Cc1ncc([N+](=O)[O-])n1CCCO` [Ternidazole], the MIC90 (E. coli ΔtolC) is reported as > 500 µg/mL.

`CC1=CC(=O)c2ccccc2C1=O` [menadione] was tested, and the “reduction by purified recombinant NfsA (2-electron reduction)” value (NfsA [4]) was “confirmed that NfsA could reduce both menadione (2-electron reduction) and ferrocyanide (1-electron reduction)”.

For marO (marRAB promoter PCR fragment), the IC50 [5] was 38 µM.
